Target: T1, Histone deacetylase 8 (Schistosoma mansoni) (UniProt A5H660)
T1 sequence (whole entry): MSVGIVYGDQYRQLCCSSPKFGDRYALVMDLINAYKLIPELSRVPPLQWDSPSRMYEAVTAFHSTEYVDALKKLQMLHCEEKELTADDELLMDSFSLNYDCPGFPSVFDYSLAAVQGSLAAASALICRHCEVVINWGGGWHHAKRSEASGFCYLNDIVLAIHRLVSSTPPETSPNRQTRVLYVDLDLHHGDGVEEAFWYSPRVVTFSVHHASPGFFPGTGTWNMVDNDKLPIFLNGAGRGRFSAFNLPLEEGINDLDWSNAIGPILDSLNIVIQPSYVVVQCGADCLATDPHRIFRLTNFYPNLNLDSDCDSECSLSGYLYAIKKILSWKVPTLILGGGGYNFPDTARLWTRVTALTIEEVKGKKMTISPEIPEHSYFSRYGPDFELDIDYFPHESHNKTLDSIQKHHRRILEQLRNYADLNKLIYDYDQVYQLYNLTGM
Experiment: Inhibition of Schistosoma mansoni KDAC8 at 30 uM using (FAM)-labeled peptide as substrate after 60 mins by microfluidic assay

Compound | inhibition
COC(=O)CCCNC(=O)[C@@H]1CC(=O)N2CCC[C@@H]2C(=O)N2CCC[C@H]2C(=O)N[C@@H](C(C)C)C(=O)N1 | 0%
CC(C)[C@@H]1NC(=O)[C@H]2CCCN2C(=O)[C@@H]2CCCN2C(=O)C[C@H](C(=O)NCCCSCCN)NC1=O | 0%
COC(=O)CCCNC(=O)[C@@H]1CC(=O)N2CCC[C@H]2C(=O)N2CCC[C@@H]2C(=O)N[C@@H](C(C)C)C(=O)N1 | 0%
CC(C)[C@@H]1NC(=O)[C@@H]2CCCN2C(=O)[C@H]2CCCN2C(=O)C[C@H](C(=O)NCCCS)NC1=O | 14.6%
O=C(O)CCCCN1C(=O)[C@H](CCC(=O)NC(c2ccccc2)(c2ccccc2)c2ccccc2)N=C(c2ccccc2)c2ccccc21 | 0%
CC(C)[C@@H]1NC(=O)[C@@H]2CCCN2C(=O)[C@H]2CCCN2C(=O)C[C@H](C(=O)NCCCO)NC1=O | 0%
CC(C)[C@@H]1NC(=O)[C@@H]2CCCN2C(=O)[C@H]2CCCN2C(=O)C[C@@H](C(=O)NCCSSCCN)NC1=O | 0%
CC(C)[C@@H]1NC(=O)[C@@H]2CCCN2C(=O)[C@H]2CCCN2C(=O)C[C@H](C(=O)NCCCSSCCCNC(=O)[C@H]2CC(=O)N3CCC[C@@H]3C(=O)N3CCC[C@H]3C(=O)N[C@@H](C(C)C)C(=O)N2)NC1=O | 0%
CC(C)[C@@H]1NC(=O)[C@@H]2CCCN2C(=O)[C@H]2CCCN2C(=O)C[C@@H](C(=O)NCCC[S+](C)[O-])NC1=O (some centres undefined) | 0%
CSCCCNC(=O)[C@@H]1CC(=O)N2CCC[C@H]2C(=O)N2CCC[C@@H]2C(=O)N[C@@H](C(C)C)C(=O)N1 | 0%
CC(C)[C@@H]1NC(=O)[C@H]2CCCN2C(=O)[C@@H]2CCCN2C(=O)C[C@@H](C(=O)NCCS)NC1=O | 0%
CC(C)[C@@H]1NC(=O)[C@H]2CCCN2C(=O)[C@@H]2CCCN2C(=O)C[C@@H](C(=O)NCCCO)NC1=O | 0%
CC(C)[C@@H]1NC(=O)[C@@H]2CCCN2C(=O)[C@H]2CCCN2C(=O)C[C@H](C(=O)OCc2ccccc2)NC1=O | 0%
CC(C)[C@@H]1NC(=O)[C@@H]2CCCN2C(=O)[C@H]2CCCN2C(=O)C[C@@H](C(=O)NCCCSSCCCNC(=O)[C@@H]2CC(=O)N3CCC[C@@H]3C(=O)N3CCC[C@H]3C(=O)N[C@@H](C(C)C)C(=O)N2)NC1=O | 0%
CC(C)[C@@H]1NC(=O)[C@@H]2CCCN2C(=O)[C@H]2CCCN2C(=O)C[C@@H](C(=O)OCc2ccccc2)NC1=O | 0%
CC(C)[C@@H]1NC(=O)[C@H]2CCCN2C(=O)[C@@H]2CCCN2C(=O)C[C@H](C(=O)NCCCC(=O)O)NC1=O | 0%
CC(C)[C@@H]1NC(=O)[C@H]2CCCN2C(=O)[C@@H]2CCCN2C(=O)C[C@H](C(=O)NCCCS)NC1=O | 3.18%
CC(C)[C@@H]1NC(=O)[C@H]2CCCN2C(=O)[C@@H]2CCCN2C(=O)C[C@@H](C(=O)NCCCS)NC1=O | 1.45%
CC(C)[C@@H]1NC(=O)[C@@H]2CCCN2C(=O)[C@H]2CCCN2C(=O)C[C@H](C(=O)NCCCS(C)(=O)=O)NC1=O | 0%
CC(C)[C@@H]1NC(=O)[C@H]2CCCN2C(=O)[C@@H]2CCCN2C(=O)C[C@H](C(=O)NCCCS(C)(=O)=O)NC1=O | 0%

Compound | inhibition
CC(C)[C@@H]1NC(=O)[C@H]2CCCN2C(=O)[C@@H]2CCCN2C(=O)C[C@@H](C(=O)NCCCS(C)(=O)=O)NC1=O | 0%
CC(C)[C@@H]1NC(=O)[C@@H]2CCCN2C(=O)[C@H]2CCCN2C(=O)C[C@H](C(=O)NCCC[S+](C)[O-])NC1=O (some centres undefined) | 0%
CC(C)[C@@H]1NC(=O)[C@@H]2CCCN2C(=O)[C@H]2CCCN2C(=O)C[C@@H](C(=O)NCCSSCCNP(=O)(Oc2ccccc2)Oc2ccccc2)NC1=O | 0%
CC(C)[C@@H]1NC(=O)[C@@H]2CCCN2C(=O)[C@H]2CCCN2C(=O)C[C@@H](C(=O)NCCCS)NC1=O | 0.84%
CC(C)[C@@H]1NC(=O)[C@H]2CCCN2C(=O)[C@@H]2CCCN2C(=O)C[C@@H](C(=O)NCCCSSCCCNC(=O)[C@@H]2CC(=O)N3CCC[C@H]3C(=O)N3CCC[C@@H]3C(=O)N[C@@H](C(C)C)C(=O)N2)NC1=O | 0%
CC(C)[C@@H]1NC(=O)[C@H]2CCCN2C(=O)[C@@H]2CCCN2C(=O)C[C@@H](C(=O)O)NC1=O | 0%
COC(=O)CCCNC(=O)[C@H]1CC(=O)N2CCC[C@@H]2C(=O)N2CCC[C@H]2C(=O)N[C@@H](C(C)C)C(=O)N1 | 0%
CC(C)[C@@H]1NC(=O)[C@H]2CCCN2C(=O)[C@@H]2CCCN2C(=O)C[C@H](C(=O)NCCSSCCNC(=O)[C@H]2CC(=O)N3CCC[C@H]3C(=O)N3CCC[C@@H]3C(=O)N[C@@H](C(C)C)C(=O)N2)NC1=O | 0%
CC(C)[C@@H]1NC(=O)[C@H]2CCCN2C(=O)[C@@H]2CCCN2C(=O)C[C@H](C(=O)Cc2ccccc2)NC1=O | 0%
CC(C)[C@@H]1NC(=O)[C@@H]2CCCN2C(=O)[C@H]2CCCN2C(=O)C[C@H](C(=O)O)NC1=O | 0%
CSCCCNC(=O)[C@H]1CC(=O)N2CCC[C@@H]2C(=O)N2CCC[C@H]2C(=O)N[C@@H](C(C)C)C(=O)N1 | 0%
CC(C)[C@@H]1NC(=O)[C@@H]2CCCN2C(=O)[C@H]2CCCN2C(=O)C[C@H](C(=O)NCCS)NC1=O | 8.3%
CC(C)[C@@H]1NC(=O)[C@@H]2CCCN2C(=O)[C@H]2CCCN2C(=O)C[C@@H](C(=O)NCCCC(=O)O)NC1=O | 0%
CC(C)[C@@H]1NC(=O)[C@@H]2CCCN2C(=O)[C@H]2CCCN2C(=O)C[C@@H](C(=O)NCCS)NC1=O | 0%
CC(C)[C@@H]1NC(=O)[C@H]2CCCN2C(=O)[C@@H]2CCCN2C(=O)C[C@H](C(=O)NCCCSSCCCNC(=O)[C@H]2CC(=O)N3CCC[C@H]3C(=O)N3CCC[C@@H]3C(=O)N[C@@H](C(C)C)C(=O)N2)NC1=O | 3.36%
CC(C)[C@@H]1NC(=O)[C@@H]2CCCN2C(=O)[C@H]2CCCN2C(=O)C[C@H](C(=O)NCCSSCCN)NC1=O | 0%
COC(=O)CCCNC(=O)[C@H]1CC(=O)N2CCC[C@H]2C(=O)N2CCC[C@@H]2C(=O)N[C@@H](C(C)C)C(=O)N1 | 1.47%
CC(C)[C@@H]1NC(=O)[C@@H]2CCCN2C(=O)[C@H]2CCCN2C(=O)C[C@H](C(=O)NCCCN)NC1=O | 0%
CSCCCNC(=O)[C@@H]1CC(=O)N2CCC[C@@H]2C(=O)N2CCC[C@H]2C(=O)N[C@@H](C(C)C)C(=O)N1 | 0%
CC(C)[C@@H]1NC(=O)[C@H]2CCCN2C(=O)[C@@H]2CCCN2C(=O)C[C@@H](C(=O)NCCSSCCNC(=O)[C@@H]2CC(=O)N3CCC[C@H]3C(=O)N3CCC[C@@H]3C(=O)N[C@@H](C(C)C)C(=O)N2)NC1=O | 0%

Compound | inhibition
CC(C)[C@@H]1NC(=O)[C@@H]2CCCN2C(=O)[C@H]2CCCN2C(=O)C[C@H](C(=O)NCCCC(=O)NO)NC1=O | 25.8%
CC(C)[C@@H]1NC(=O)[C@H]2CCCN2C(=O)[C@@H]2CCCN2C(=O)C[C@@H](C(=O)NCCC[S+](C)[O-])NC1=O (some centres undefined) | 0%
CC(C)[C@@H]1NC(=O)[C@H]2CCCN2C(=O)[C@@H]2CCCN2C(=O)C[C@@H](C(=O)NCCCC(=O)O)NC1=O | 0%
CC(C)[C@@H]1NC(=O)[C@H]2CCCN2C(=O)[C@@H]2CCCN2C(=O)C[C@H](C(=O)O)NC1=O | 0%
CC(C)[C@@H]1NC(=O)[C@@H]2CCCN2C(=O)[C@H]2CCCN2C(=O)C[C@H](C(=O)NCCSSCCNC(=O)[C@H]2CC(=O)N3CCC[C@@H]3C(=O)N3CCC[C@H]3C(=O)N[C@@H](C(C)C)C(=O)N2)NC1=O | 0%
CC(C)[C@@H]1NC(=O)[C@@H]2CCCN2C(=O)[C@H]2CCCN2C(=O)C[C@@H](C(=O)NCCCS(C)(=O)=O)NC1=O | 0%
CSCCCNC(=O)[C@H]1CC(=O)N2CCC[C@H]2C(=O)N2CCC[C@@H]2C(=O)N[C@@H](C(C)C)C(=O)N1 | 0%
CC(C)[C@@H]1NC(=O)[C@@H]2CCCN2C(=O)[C@H]2CCCN2C(=O)C[C@@H](C(=O)NCCCO)NC1=O | 0%
CC(C)[C@@H]1NC(=O)[C@H]2CCCN2C(=O)[C@@H]2CCCN2C(=O)C[C@H](C(=O)NCCC[S+](C)[O-])NC1=O (some centres undefined) | 0%
CC(C)[C@@H]1NC(=O)[C@@H]2CCCN2C(=O)[C@H]2CCCN2C(=O)C[C@@H](C(=O)NCCSSCCNC(=O)[C@@H]2CC(=O)N3CCC[C@@H]3C(=O)N3CCC[C@H]3C(=O)N[C@@H](C(C)C)C(=O)N2)NC1=O | 0%
CC(C)[C@@H]1NC(=O)[C@@H]2CCCN2C(=O)[C@H]2CCCN2C(=O)C[C@@H](C(=O)NCCCN)NC1=O | 0%
CC(C)[C@@H]1NC(=O)[C@H]2CCCN2C(=O)[C@@H]2CCCN2C(=O)C[C@H](C(=O)NCCS)NC1=O | 0%
CC(C)[C@@H]1NC(=O)[C@@H]2CCCN2C(=O)[C@H]2CCCN2C(=O)C[C@@H](C(=O)NCCCC(=O)NO)NC1=O | 21.2%
CC(C)[C@@H]1NC(=O)[C@@H]2CCCN2C(=O)[C@H]2CCCN2C(=O)C[C@H](C(=O)NCCSSCCNP(=O)(Oc2ccccc2)Oc2ccccc2)NC1=O | 3%
CC(C)[C@@H]1NC(=O)[C@@H]2CCCN2C(=O)[C@H]2CCCN2C(=O)C[C@H](C(=O)NCCCC(=O)O)NC1=O | 0%
CC(C)[C@@H]1NC(=O)[C@H]2CCCN2C(=O)[C@@H]2CCCN2C(=O)C[C@@H](C(=O)NCCCSCCN)NC1=O | 0%
CC(C)[C@@H]1NC(=O)[C@H]2CCCN2C(=O)[C@@H]2CCCN2C(=O)C[C@H](C(=O)NCCCO)NC1=O | 0%
CC(C)[C@@H]1NC(=O)[C@@H]2CCCN2C(=O)[C@H]2CCCN2C(=O)C[C@@H](C(=O)O)NC1=O | 0%
CC(C)[C@@H]1NC(=O)[C@H]2CCCN2C(=O)[C@@H]2CCCN2C(=O)C[C@@H](C(=O)OCc2ccccc2)NC1=O | 0%
